# Source: patent US11000491B2, “Amino-aryl-benzamide compounds and methods of use thereof” (HEPANOVA, INC., priority 2017, dated 2021)
# Like-named read-outs stand apart in the source and are kept apart here.
# How the values were obtained:
# Format in all cases: cell-based
# [1] = system: Huh7 cells; experiment: LD content in Huh7 cells pre-treated with insulin, Oil-Red-O staining, absorbance OD 540 nm; details: procedure of Example 3, read-out: LD content inhibition (EC50)
# Protocol: FIG. 6. […] Spectrophotometric absorbance of untreated or HPN-01-treated Huh7 cells pre-incubated with 1 mM insulin is shown. LD contents were stained using Oil Red O, and measured by determining spectrophotometer absorbance under OD 540 nm.
# Huh7 cells were mock treated or pre-treated with 1 mM insulin, and subsequently treated with indicated amounted of HPN-01.
# The ability of each HPN-01 derivative obtained from the synthesis methods described above, to inhibit LD formation in hepatocytes, was tested using the procedure outlined in Example 3. The results of this analysis are shown below in Table 6 (second column).
# [2] = system: SREBP-1; experiment: SREBP-1 expression in cultured primary human hepatocytes; details: procedure of Example 6, read-out: SREBP-1 mRNA inhibition (EC50)
# Protocol: (§1) FIG. 9. Effects of HPN-01 on the expression of SREBP-1 (master regulator of hepatic glucose metabolism and fatty acid synthesis) and SREBP-2 (master regulator of cholesterol homeostasis in cells) in cultured primary human hepatocytes.
# (§2) Cultured primary human hepatocytes were treated with various concentrations of HPN-01, and the expression levels of SREBP-1 (master regulator of hepatic glucose metabolism and fatty acid synthesis) and SREBP-2 (master regulator of cholesterol homeostasis in cells) were subsequently determined.
# (§3) The ability of each HPN-01 derivative obtained from the synthesis methods described above, to inhibit SREBP-1 and SREBP-2 mRNA expression in primary hepatocytes, was tested using the procedure outlined in Example 6. The results of this analysis are shown in Table 6 (third and fourth columns).
# [3] = system: SREBP-2; experiment: SREBP-2 expression in cultured primary human hepatocytes; details: procedure of Example 6, read-out: SREBP-2 mRNA inhibition (EC50)
# Protocol: as §1, §2, §3
# [4] = Homo sapiens, Huh-7, Huh7 cells
Compound,"EC50 [1, 4] [nM]",EC50 ([1]; Huh7 cells) [nM],"EC50 ([2]; Homo sapiens, Hepatocyte) [nM]","EC50 ([3]; Homo sapiens, Hepatocyte) [nM]",EC50 ([2]; Hepatocyte) [nM],EC50 ([3]; Hepatocyte) [nM],EC50 [2] [nM],EC50 [3] [nM]
"NC(=O)c1cc(-c2ccc(Br)cc2)cc(-c2ccc(S(N)(=O)=O)cc2)c1NC(=O)C1CC1 [HPN-01525, 4-bromo-4′-(cyclopropanecarboxamido)-4″-sulfamoyl-[1,1′:3′,1″-terphenyl]-5′-carboxamide]",1450,,5610,10000,,,,
"NC(=O)c1cc(C#CCOC(=O)c2ccccc2F)cc(-c2ccc(S(N)(=O)=O)cc2)c1N [HPN-01213, 3-(6-amino-5-carbamoyl-4′-sulfamoyl-[1,1′-biphenyl]-3-yl)prop-2-yn-1-yl 2-fluorobenzoate]",1290,,4550,4880,,,,
"COc1ccc(C(=O)OCC#Cc2cc(C(N)=O)c(N)c(-c3ccc(S(N)(=O)=O)cc3)c2)cc1 [HPN-01218, 3-(6-amino-5-carbamoyl-4′-sulfamoyl-[1,1′-biphenyl]-3-yl)prop-2-yn-1-yl 4-methoxybenzoate]",990,,4540,6510,,,,
"Nc1c(C(=O)Nc2cccc(F)c2)cc(-c2ccc(Cl)cc2)cc1-c1ccc(S(N)(=O)=O)cc1 [HPN-01613, 4′-amino-4-chloro-N-(3-fluorophenyl)-4″-sulfamoyl-[1,1′:3′,1″-terphenyl]-5′-carboxamide]",1370,,1550,2200,,,,
"NC(=O)c1cc(-c2ccc(Cl)cc2)cc(-c2ccc(S(N)(=O)=O)cn2)c1N [HPN-01428, 4-amino-4′-chloro-5-(5-sulfamoylpyridin-2-yl)-[1,1′-biphenyl]-3-carboxamide]",1140,,5650,18800,,,,
"CC(C)NC(=O)Nc1ccc(-c2cc(-c3ccc(Cl)cc3)cc(C(N)=O)c2N)cc1 [HPN-01430, 4′-amino-4-chloro-4″-(3-isopropylureido)-[1,1′:3′,1″-terphenyl]-5′-carboxamide]",5360,,1880,4370,,,,
"NC(=O)c1cc(-c2ccc(Br)cc2)cc(-c2ccc(OP(=O)(O)O)cc2)c1N [HPN-01416, 6′-amino-4″-bromo-5′-carbamoyl-[1,1′:3′,1″-terphenyl]-4-yl dihydrogen phosphate]",1510,,,,3020,4010,,
"NC(=O)c1cc(C#CCOC(=O)c2cccc(O)c2)cc(-c2ccc(S(N)(=O)=O)cc2)c1N [HPN-01219, 3-(6-amino-5-carbamoyl-4′-sulfamoyl-[1,1′-biphenyl]-3-yl)prop-2-yn-1-yl 3-hydroxybenzoate]",960,,4710,6910,,,,
"NC(=O)c1cc(C#CCO)cc(-c2ccc(S(N)(=O)=O)cc2)c1N [HPN-01201, 2-amino-5-(3-hydroxyprop-1-ynyl)-4′-sulfamoylbiphenyl-3-carboxamide]",1200,,3160,6850,,,,
"N=C(N)Nc1ccc(-c2cc(-c3ccc(Cl)cc3)cc(C(N)=O)c2N)cc1 [HPN-01417, 4′-amino-4-chloro-4″-guanidino-[1,1′:3′,1″-terphenyl]-5′-carboxamide]",1260,,3150,4920,,,,
"NC(=O)c1cc(-c2ccc(Cl)cn2)cc(-c2ccc(S(N)(=O)=O)cc2)c1N [HPN-01308, 2-amino-5-(5-chloropyridin-2-yl)-4′-sulfamoyl-[1,1′-biphenyl]-3-carboxamide]",1900,,6360,11200,,,,
"4′-butyramido-4-chloro-4″-sulfamoyl-[1,1′:3′,1″-terphenyl]-5′-carboxamide [HPN-01515]",,480,,,,,950,1320
"NCCC(=O)Nc1c(C(N)=O)cc(-c2ccc(Cl)cc2)cc1-c1ccc(S(N)(=O)=O)cc1 [HPN-01530, 4′-(3-aminopropanamido)-4-chloro-4″-sulfamoyl-[1,1′:3′,1″-terphenyl]-5′-carboxamide]",,460,,,,,3940,9400
"CCCC(=O)Oc1ccc(-c2cc(C(N)=O)c(N)c(-c3ccc(S(N)(=O)=O)cc3)c2)cc1 [HPN-01306, 4′-amino-5′-carbamoyl-4″-sulfamoyl-[1,1′:3′,1″-terphenyl]-4-yl butyrate]",1330,,1760,3260,,,,

# The remaining compounds from weak to strong by EC50 [1, 4], led by results:
"EC50 [1, 4] [nM]",EC50 ([1]; Huh7 cells) [nM],Compound,"EC50 ([2]; Homo sapiens, Hepatocyte) [nM]","EC50 ([3]; Homo sapiens, Hepatocyte) [nM]",EC50 ([2]; Hepatocyte) [nM],EC50 ([3]; Hepatocyte) [nM],EC50 [2] [nM],EC50 [3] [nM]
810,,"CCCC(=O)Nc1c(C(N)=O)cc(-c2ccc(Cl)cc2)cc1-c1ccc(NC(N)=O)cc1 [HPN-01519, 4′-butyramido-4-chloro-4″-ureido-[1,1′:3′,1″-terphenyl]-5′-carboxamide]",1510,2750,,,,
810,,"NC(=O)c1cc(-c2ccc(Cl)cc2)cc(OCCc2ccc(S(N)(=O)=O)cc2)c1N [HPN-01423, 4-amino-4′-chloro-5-(4-sulfamoylphenethoxy)-[1,1′-biphenyl]-3-carboxamide]",1360,2370,,,,
790,,"Nc1c(C(=O)Nc2ccccc2)cc(-c2ccc(Cl)cc2)cc1-c1ccc(S(N)(=O)=O)cc1 [HPN-01611, 4′-amino-4-chloro-N-phenyl-4″-sulfamoyl-[1,1′:3′,1″-terphenyl]-5′-carboxamide]",1370,2240,,,,
740,,"NC(=O)c1cc(-c2ccc(Cl)cc2)cc(Nc2cccc(S(N)(=O)=O)c2)c1N [HPN-01413, 4-amino-4′-chloro-5-((3-sulfamoylphenyl)amino)-[1,1′-biphenyl]-3-carboxamide]",1520,2700,,,,
670,,"NC(=O)c1cc(/C=C/c2cccc(F)c2)cc(-c2ccc(S(N)(=O)=O)cc2)c1N [HPN-01104, (E)-2-amino-5-(3-fluorostyryl)-4′-sulfamoyl-[1,1′-biphenyl]-3-carboxamide]",2080,3260,,,,
650,,"CCCC(=O)Nc1cccc(/C=C/c2cc(C(N)=O)c(N)c(-c3ccc(S(N)(=O)=O)cc3)c2)c1 [HPN-01112, (E)-2-amino-5-(3-butyramidostyryl)-4′-sulfamoyl-[1,1′-biphenyl]-3-carboxamide]",2030,1360,,,,
610,,"Cc1cccc(C(=O)OCC#Cc2cc(C(N)=O)c(N)c(-c3ccc(S(N)(=O)=O)cc3)c2)c1 [HPN-01215, 3-(6-amino-5-carbamoyl-4′-sulfamoyl-[1,1′-biphenyl]-3-yl)prop-2-yn-1-yl 3-methylbenzoate]",3720,6780,,,,
530,,"NC(=O)c1cc(C#CCOC(=O)c2ccccc2Cl)cc(-c2ccc(S(N)(=O)=O)cc2)c1N [HPN-01210, 3-(6-amino-5-carbamoyl-4′-sulfamoyl-[1,1′-biphenyl]-3-yl)prop-2-yn-1-yl 2-chlorobenzoate]",1920,2970,,,,
500,,"CCCC(=O)Nc1ccc(-c2cc(-c3ccc(Cl)cc3)cc(C(N)=O)c2N)cc1 [HPN-01409, 4′-amino-4″-butyramido-4-chloro-[1,1′:3′,1″-terphenyl]-5′-carboxamide]",1050,1420,,,,
460,,"NC(=O)c1cc(C#CCOC(=O)c2ccc(O)cc2)cc(-c2ccc(S(N)(=O)=O)cc2)c1N [HPN-01220, 3-(6-amino-5-carbamoyl-4′-sulfamoyl-[1,1′-biphenyl]-3-yl)prop-2-yn-1-yl 4-hydroxybenzoate]",1590,3210,,,,
140,,"Nc1c(C(=O)NC2CC2)cc(-c2ccc(Br)cc2)cc1-c1ccc(S(N)(=O)=O)cc1 [HPN-01606, 4′-amino-4-bromo-N-cyclopropyl-4″-sulfamoyl-[1,1′:3′,1″-terphenyl]-5′-carboxamide]",1130,2750,,,,
